Laboratory results published in patent US9573911B2, “Diphosphate mimetics and uses thereof” (President and Fellows of Harvard College, priority 2011, dated 2017).
pIC50: −log10 of the molar value.

Legend:
OGT [1] = molecular target: T1, OGT (Homo sapiens, UniProt O15294); test: Time-dependent inactivation of OGT with BZX compounds; type: biochemical
T1 construct: hOGT4.5 construct (spanning residues 313-1031 based on the numbering of the full length human protein); made in house
T1 sequence (O15294 313-1031 isoform O15294-3): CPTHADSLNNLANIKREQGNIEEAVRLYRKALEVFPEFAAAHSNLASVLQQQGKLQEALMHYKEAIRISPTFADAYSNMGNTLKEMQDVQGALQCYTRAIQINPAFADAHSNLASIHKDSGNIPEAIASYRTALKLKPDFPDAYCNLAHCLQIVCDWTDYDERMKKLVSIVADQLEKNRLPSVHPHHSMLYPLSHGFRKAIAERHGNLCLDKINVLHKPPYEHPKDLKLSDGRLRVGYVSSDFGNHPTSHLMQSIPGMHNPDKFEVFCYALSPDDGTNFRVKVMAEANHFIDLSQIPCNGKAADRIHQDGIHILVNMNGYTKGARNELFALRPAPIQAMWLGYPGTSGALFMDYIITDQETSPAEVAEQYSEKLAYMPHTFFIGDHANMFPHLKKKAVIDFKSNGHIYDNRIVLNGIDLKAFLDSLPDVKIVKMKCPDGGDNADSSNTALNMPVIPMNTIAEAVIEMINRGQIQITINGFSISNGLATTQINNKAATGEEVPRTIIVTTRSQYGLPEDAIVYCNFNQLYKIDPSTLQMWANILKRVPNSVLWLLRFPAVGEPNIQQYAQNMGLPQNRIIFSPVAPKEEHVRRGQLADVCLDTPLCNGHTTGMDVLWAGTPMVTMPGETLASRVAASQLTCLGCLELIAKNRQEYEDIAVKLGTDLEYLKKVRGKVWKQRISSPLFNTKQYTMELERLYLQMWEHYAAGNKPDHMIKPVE
Text: Compound (1) was identified in a high-throughput screen of 65,000 compounds (FIG. 1). See, e.g., Gross et al., J. Am. Chem. Soc. (2005) 127:14588-14589. It contains a dicarbamate moiety that links two aromatic groups. This compound features a conjugated chemical structure and both carbamate carbonyls are potentially reactive. See, e.g., Alexander et al., Chem. Biol. (2005) 12:1179-1187. […] A small panel of related compounds was made from commercially available building blocks in order to identify structural features that might improve potency. Time-dependent inactivation studies were carried out in which OGT was preincubated with a three-fold excess of each compound for 5 min, and the mixture was then diluted 100-fold into buffer containing UDP-^14C-GlcNAc and the well-characterized peptide substrate, CKII. See, e.g., Kreppel et al., J. Biol. Chem. (1999) 274:32015-32022). Enzyme activity was measured using a previously developed peptide capture assay. See, e.g., Gross et al., J. Am. Chem. Soc. (2005) 127:14588-14589.
Each BZX compound (7.5 μM) was preincubated with 5 μM OGT in reaction buffer (125 mM NaCl, 1 mM EDTA, 20 mM potassium phosphate, pH 7.4, and 500 μM tris(hydroxypropyl)phosphine (THP)) at room temperature for different amount of time, then diluted 100-fold, mixed with substrates (6 μM UDP-^14C-GlcNAc and 500 μM CKII peptide (KKKYPGGSTPVSSANMM)) and allowed to react for another 2 h. Enzyme activity was tested with the peptide capture assay as previously reported. See, e.g., Gross et al., J. Am. Chem. Soc. (2005) 127:14588-14589. The final volume of each reaction was 20 μl, and the experiments were conducted in triplicate. The activities of OGT mutants were also tested in triplicate as previously reported. See, e.g., Gross supra.

OGT [2] = molecular target: T1, OGT; test: IC50 assay, OGT peptide-capture assay; type: biochemical; settings: peptide-capture assay, different concentrations of each compound, read-out: IC50 Values
Experimental: IC50 Assay of Thiocarbamate to OGT.
Enzyme activity was tested with the peptide-capture assay in the presence of different concentrations of each compound as previously reported (J. Am. Chem. Soc. 2005, 127, 14588-14589).

Row | Structure (SMILES) | OGT enzyme activity after preincubation with compound (OGT [1]; three-fold excess of compound, 5 min preincubation, then diluted 100-fold) | pIC50 (OGT [2]) | inactivation time course of OGT (OGT [1]; 1.5:1 inhibitor:enzyme ratio)
1 | COc1ccc(OC(=O)n2c(=O)oc3cc(C(C)=O)ccc32)cc1 [Compound 1] | irreversible loss of enzyme activity |  | 
2 | COc1ccc(OC(=O)n2c(=O)oc3ccc(Cl)cc32)cc1 [Compound 3] |  | 4.74 | 
3 | O=C(Oc1ccccc1)n1c(=O)oc2cc([N+](=O)[O-])ccc21 [Compound 4] |  | 4.22 | 
4 | O=C(Oc1ccccc1)n1c(=O)oc2ccccc21 [Compound 5] |  | < 4.00 | 
5 | COc1ccc2c(c1)oc(=O)n2C(=O)Oc1ccccc1 [Compound 6] |  | ~4.00 | no inhibition
